These molecules were tested against Pol Theta (1-894) (Homo sapiens (Human), UniProt O75417) (assay: Biochemical Pol Theta (1-894) ATPase IC50 assay (ADP-Glo, ssDNA substrate)). Settings: ADP-Glo assay with ssDNA substrate, room temperature.
Sequence of Pol Theta (1-894) (O75417 1-894): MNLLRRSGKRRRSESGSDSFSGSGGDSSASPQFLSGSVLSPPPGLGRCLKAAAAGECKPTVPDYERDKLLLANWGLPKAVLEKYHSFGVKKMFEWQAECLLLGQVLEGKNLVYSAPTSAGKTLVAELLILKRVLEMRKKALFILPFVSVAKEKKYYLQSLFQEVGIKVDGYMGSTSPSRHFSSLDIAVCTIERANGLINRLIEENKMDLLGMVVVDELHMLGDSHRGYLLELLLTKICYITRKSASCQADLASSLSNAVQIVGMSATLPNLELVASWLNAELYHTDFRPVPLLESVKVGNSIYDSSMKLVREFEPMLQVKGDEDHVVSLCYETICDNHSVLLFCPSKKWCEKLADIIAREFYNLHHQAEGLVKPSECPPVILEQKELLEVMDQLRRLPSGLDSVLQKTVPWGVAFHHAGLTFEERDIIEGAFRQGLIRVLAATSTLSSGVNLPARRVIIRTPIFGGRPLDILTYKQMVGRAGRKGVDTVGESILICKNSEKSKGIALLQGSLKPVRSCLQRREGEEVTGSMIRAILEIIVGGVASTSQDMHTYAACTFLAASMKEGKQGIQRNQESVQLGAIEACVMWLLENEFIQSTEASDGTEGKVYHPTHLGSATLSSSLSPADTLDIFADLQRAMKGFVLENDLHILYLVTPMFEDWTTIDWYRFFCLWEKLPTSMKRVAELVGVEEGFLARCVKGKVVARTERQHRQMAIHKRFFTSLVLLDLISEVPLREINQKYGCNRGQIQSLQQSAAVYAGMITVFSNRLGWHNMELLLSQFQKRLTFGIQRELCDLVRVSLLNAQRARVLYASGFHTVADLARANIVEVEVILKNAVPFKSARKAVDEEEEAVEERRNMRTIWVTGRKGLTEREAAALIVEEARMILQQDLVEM
Summary of the method: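 His-tagged human Pol Theta 1-894 from Sf9 baculovirus cells, 2× enzyme solution at 12.5 nM, assayed with ssDNA substrate at room temperature in 40 mM Tris pH 7.5, 20 mM MgCl2, 1 mM DTT, 0.01% BSA, 0.05% Tween-20.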
`COc1ccccc1-c1cnncc1C(=O)Nc1nc2ccc(-c3ccc(C#N)cc3)nc2s1` [Example 83, N-(5-(4-cyanophenyl)thiazolo[5,4-b]pyridin-2-yl)-5-(2-methoxyphenyl)pyridazine-4-carboxamide] was tested, and the IC50 was 6.2 nM. `COc1cc(-c2ccc3nc(NC(=O)c4cnc(C)cc4-c4cc(C#N)ccc4OC)sc3n2)ccc1C#N` [Example 161, 4-(5-cyano-2-methoxyphenyl)-N-(5-(4-cyano-3-methoxyphenyl)thiazolo[5,4-b]pyridin-2-yl)-6-methylnicotinamide] gave an IC50 of 36 nM. In the case of `Cc1cc(-c2ccccc2CO)c(C(=O)Nc2nc3ccc(-c4ccc(C#N)cc4)nc3s2)cn1` [Example 64, N-(5-(4-cyanophenyl)thiazolo[5,4-b]pyridin-2-yl)-4-(2-(hydroxymethyl)phenyl)-6-methylnicotinamide], the IC50 is reported as 186 nM. With `Cc1cc(-c2ccccc2C#N)c(C(=O)Nc2nc3ccc(-c4ccc(C#N)cc4)nc3s2)cn1` [Example 53, 4-(2-cyanophenyl)-N-(5-(4-cyanophenyl)thiazolo[5,4-b]pyridin-2-yl)-6-methylnicotinamide] the IC50 was 78 nM. Molecule `COc1ccc(C#N)cc1-c1cc(C)ncc1C(=O)Nc1nc2ccc(-c3ccc(N4CCCS4(=O)=O)cc3)nc2s1` [Example 135, 4-(5-cyano-2-methoxyphenyl)-N-(5-(4-(1,1-dioxidoisothiazolidin-2-yl)phenyl)thiazolo[5,4-b]pyridin-2-yl)-6-methylnicotinamide] has an IC50 of 23 nM. `COc1ccccc1-c1cnncc1C(=O)Nc1nc2ccc(-c3ccc(C#N)cn3)nc2s1` [Example 158, N-(5-(5-cyanopyridin-2-yl)thiazolo[5,4-b]pyridin-2-yl)-5-(2-methoxyphenyl)pyridazine-4-carboxamide] was tested, and the IC50 was 8.2 nM. With `Cc1cc(-c2cccc3c2OCC(=O)N3)c(C(=O)Nc2nc3ccc(-c4ccc(C#N)cc4)nc3s2)cn1` [Example 70, N-(5-(4-cyanophenyl)thiazolo[5,4-b]pyridin-2-yl)-6-methyl-4-(3-oxo-3,4-dihydro-2H-benzo[b][1,4]oxazin-8-yl)nicotinamide] the IC50 was 193 nM. `COc1ccc(S(C)(=O)=O)cc1-c1cc(C)ncc1C(=O)Nc1nc2ccc(-c3ccc(C#N)cc3)nc2s1` [Example 52, N-(5-(4-cyanophenyl)thiazolo[5,4-b]pyridin-2-yl)-4-(2-methoxy-5-(methylsulfonyl)phenyl)-6-methylnicotinamide] gave an IC50 of 8.4 nM. For `COc1cc(Oc2ccc3nc(NC(=O)c4cnncc4-c4ccccc4OC)sc3n2)ccc1Cl` [Example 131, N-(5-(4-chloro-3-methoxyphenoxy)thiazolo[5,4-b]pyridin-2-yl)-5-(2-methoxyphenyl)pyridazine-4-carboxamide], the IC50 was 14 nM. For `COc1ccc(C#N)cc1-c1cc(Cl)ncc1C(=O)Nc1nc2ccc(-c3ccc(N4CCOCC4)cc3)nc2s1` [Example 58, 6-chloro-4-(5-cyano-2-methoxyphenyl)-N-(5-(4-morpholinophenyl)thiazolo[5,4-b]pyridin-2-yl)nicotinamide], the IC50 was 101 nM. Work on `COc1ccccc1-c1cc(C(=O)O)ncc1C(=O)Nc1nc2ccc(-c3ccc(NC(C)=O)cc3)nc2s1` [Example 46, 5-((5-(4-acetamidophenyl)thiazolo[5,4-b]pyridin-2-yl)carbamoyl)-4-(2-methoxyphenyl)picolinic acid] yielded an IC50 of 129 nM. `COc1ccccc1-c1cnncc1C(=O)Nc1nc2ccc(Oc3ccc(Cl)c(C)c3)nc2s1` [Example 129, N-(5-(4-chloro-3-methylphenoxy)thiazolo[5,4-b]pyridin-2-yl)-5-(2-methoxyphenyl)pyridazine-4-carboxamide] gave an IC50 of 23 nM. Work on `Cc1cc(-c2cccc3c2OCO3)c(C(=O)Nc2nc3ccc(-c4ccc(C#N)cc4)nc3s2)cn1` [Example 68, 4-(benzo[d][1,3]dioxol-4-yl)-N-(5-(4-cyanophenyl)thiazolo[5,4-b]pyridin-2-yl)-6-methylnicotinamide] yielded an IC50 of 253 nM. Work on `COc1ccc(C#N)cc1-c1cc(C)ncc1C(=O)Nc1nc2ccc(-c3ccc(CO)cc3)nc2s1` [Example 44, 4-(5-cyano-2-methoxyphenyl)-N-(5-(4-(hydroxymethyl)phenyl)thiazolo[5,4-b]pyridin-2-yl)-6-methylnicotinamide] yielded an IC50 of 14 nM. Work on `COc1ccccc1-c1cnncc1C(=O)Nc1nc2ccc(-c3ccc(Cl)c4c3cnn4C)nc2s1` [Example 125, N-(5-(7-chloro-1-methyl-1H-indazol-4-yl)thiazolo[5,4-b]pyridin-2-yl)-5-(2-methoxyphenyl)pyridazine-4-carboxamide] yielded an IC50 of 25 nM. `CCNC(=O)c1ccc(-c2ccc3nc(NC(=O)c4cnncc4-c4ccccc4OC)sc3n2)cc1` [Example 108, N-(5-(4-(ethylcarbamoyl)phenyl)thiazolo[5,4-b]pyridin-2-yl)-5-(2-methoxyphenyl)pyridazine-4-carboxamide] gave an IC50 of 19 nM. `COc1ccccc1-c1cnncc1C(=O)Nc1nc2ccc(Oc3ccc(Cl)c(F)c3)nc2s1` [Example 130, N-(5-(4-chloro-3-fluorophenoxy)thiazolo[5,4-b]pyridin-2-yl)-5-(2-methoxyphenyl)pyridazine-4-carboxamide] gave an IC50 of 35 nM. `COc1ccc(C#N)cc1-c1cc(C)ncc1C(=O)Nc1nc2ccc(-c3ccc(C#N)c(C)c3)nc2s1` [Example 166, 4-(5-cyano-2-methoxyphenyl)-N-(5-(4-cyano-3-methylphenyl)thiazolo[5,4-b]pyridin-2-yl)-6-methylnicotinamide] was tested, and the IC50 was 13 nM. Work on `COc1ccccc1-c1cnncc1C(=O)Nc1nc2ccc(C#Cc3ccc(Cl)cc3)nc2s1` [Example 63, N-(5-((4-chlorophenyl)ethynyl)thiazolo[5,4-b]pyridin-2-yl)-5-(2-methoxyphenyl)pyridazine-4-carboxamide] yielded an IC50 of 31 nM. In the case of `COCCOc1ccc2nc(NC(=O)c3cnc(C)cc3-c3cc(C#N)ccc3OC)sc2n1` [Example 77, 4-(5-cyano-2-methoxyphenyl)-N-(5-(2-methoxyethoxy)thiazolo[5,4-b]pyridin-2-yl)-6-methylnicotinamide], the IC50 is reported as 50 nM. `COc1ccccc1-c1cnncc1C(=O)Nc1nc2ccc(-c3ccc(NC(=O)CO)cc3)nc2s1` [Example 111, N-(5-(4-(2-hydroxyacetamido)phenyl)thiazolo[5,4-b]pyridin-2-yl)-5-(2-methoxyphenyl)pyridazine-4-carboxamide] gave an IC50 of 11 nM. With `COc1ccc(C#N)cc1-c1cc(Cl)ncc1C(=O)Nc1nc2ccc(-c3ccc(C#N)cc3)nc2s1` [Example 33, 6-chloro-4-(5-cyano-2-methoxyphenyl)-N-(5-(4-cyanophenyl)thiazolo[5,4-b]pyridin-2-yl)nicotinamide] the IC50 was 8.5 nM. `Cc1cc(-c2cc(C#N)c(=O)n(C)c2)c(C(=O)Nc2nc3ccc(-c4ccc(C#N)cc4)nc3s2)cn1` [Example 147, 5-cyano-N-(5-(4-cyanophenyl)thiazolo[5,4-b]pyridin-2-yl)-1,6′-dimethyl-6-oxo-1,6-dihydro-[3,4′-bipyridine]-3′-carboxamide] was tested, and the IC50 was 53 nM. `CC(=O)Nc1ccc(-c2ccc3nc(NC(=O)c4ccc(C#N)nc4N4CCOCC4)sc3n2)cc1` [Example 5, N-(5-(4-acetamidophenyl)thiazolo[5,4-b]pyridin-2-yl)-6-cyano-2-morpholinonicotinamide] was tested, and the IC50 was 186 nM. For `COc1ccccc1-c1cnncc1C(=O)Nc1nc2ccc(-c3ccc(S(C)(=O)=O)cc3F)nc2s1` [Example 133, N-(5-(2-fluoro-4-(methylsulfonyl)phenyl)thiazolo[5,4-b]pyridin-2-yl)-5-(2-methoxyphenyl)pyridazine-4-carboxamide], the IC50 was 11 nM. `COc1ccc(C#N)cc1-c1cc(C)ncc1C(=O)Nc1nc2ccc(-c3ccc(CN4CCCC4=O)cc3C)nc2s1` [Example 174, 4-(5-cyano-2-methoxyphenyl)-6-methyl-N-(5-(2-methyl-4-((2-oxopyrrolidin-1-yl)methyl)phenyl)thiazolo[5,4-b]pyridin-2-yl)nicotinamide] showed an IC50 of 11 nM. `COc1ccc([N+](=O)[O-])cc1-c1ccncc1C(=O)Nc1nc2ccc(-c3ccc(C#N)cc3)nc2s1` [Example 156, N-(5-(4-cyanophenyl)thiazolo[5,4-b]pyridin-2-yl)-4-(2-methoxy-5-nitrophenyl)nicotinamide] gave an IC50 of 14 nM. `COc1ccccc1-c1cnncc1C(=O)Nc1nc2ccc(C(=O)c3ccc(Cl)cc3)nc2s1` [Example 137, N-(5-(4-chlorobenzoyl)thiazolo[5,4-b]pyridin-2-yl)-5-(2-methoxyphenyl)pyridazine-4-carboxamide] gave an IC50 of 54 nM. With `COCc1ccc(-c2ccc3nc(NC(=O)c4cnc(C)cc4-c4cc(C#N)ccc4OC)sc3n2)cc1` [Example 79, 4-(5-cyano-2-methoxyphenyl)-N-(5-(4-(methoxymethyl)phenyl)thiazolo[5,4-b]pyridin-2-yl)-6-methylnicotinamide] the IC50 was 41 nM. With `COc1ccc(C#N)cc1-c1cnccc1C(=O)Nc1nc2ccc(-c3ccc(Cl)cc3)nc2s1` [Example 11, N-(5-(4-chlorophenyl)thiazolo[5,4-b]pyridin-2-yl)-3-(5-cyano-2-methoxyphenyl)isonicotinamide] the IC50 was 57 nM. In the case of `Cc1cc(-c2cc(C#N)ccc2C2CC2)c(C(=O)Nc2nc3ccc(-c4ccc(C#N)cc4)nc3s2)cn1` [Example 167, 4-(5-cyano-2-cyclopropylphenyl)-N-(5-(4-cyanophenyl)thiazolo[5,4-b]pyridin-2-yl)-6-methylnicotinamide], the IC50 is reported as 15 nM. With `COCc1ccc(OC)c(-c2cc(C)ncc2C(=O)Nc2nc3ccc(-c4ccc(NC(C)=O)cc4)nc3s2)c1` [Example 28, N-(5-(4-acetamidophenyl)thiazolo[5,4-b]pyridin-2-yl)-4-(2-methoxy-5-(methoxymethyl)phenyl)-6-methylnicotinamide] the IC50 was 256 nM. `COc1ccc([N+](=O)[O-])cc1-c1cc(C)ncc1C(=O)Nc1nc2ccc(-c3ccc(C#N)cc3)nc2s1` [Example 76, N-(5-(4-cyanophenyl)thiazolo[5,4-b]pyridin-2-yl)-4-(2-methoxy-5-nitrophenyl)-6-methylnicotinamide] showed an IC50 of 5.8 nM.

Reference: patent publication US20250026766A1, “Thiazolopyridyl Amide Derivatives as DNA Polymerase Theta Inhibitors” (BeiGene, Ltd., priority 2022, published 2025)
